Our source for the IC50 values is patent publication US20090075987A1, “ALKYLACETYLENE SUBSTITUTED ACYLTRYPTOPHANOLS” (priority 2007, published 2009).

Structures are written as SMILES.

The experiment deals with T1, human FSH receptor (Homo sapiens, UniProt P23945).
T1 construct: expressed in transfected cells; host or cells: CHO cells (hFSHR clone 16)
T1 sequence (P23945 18-695): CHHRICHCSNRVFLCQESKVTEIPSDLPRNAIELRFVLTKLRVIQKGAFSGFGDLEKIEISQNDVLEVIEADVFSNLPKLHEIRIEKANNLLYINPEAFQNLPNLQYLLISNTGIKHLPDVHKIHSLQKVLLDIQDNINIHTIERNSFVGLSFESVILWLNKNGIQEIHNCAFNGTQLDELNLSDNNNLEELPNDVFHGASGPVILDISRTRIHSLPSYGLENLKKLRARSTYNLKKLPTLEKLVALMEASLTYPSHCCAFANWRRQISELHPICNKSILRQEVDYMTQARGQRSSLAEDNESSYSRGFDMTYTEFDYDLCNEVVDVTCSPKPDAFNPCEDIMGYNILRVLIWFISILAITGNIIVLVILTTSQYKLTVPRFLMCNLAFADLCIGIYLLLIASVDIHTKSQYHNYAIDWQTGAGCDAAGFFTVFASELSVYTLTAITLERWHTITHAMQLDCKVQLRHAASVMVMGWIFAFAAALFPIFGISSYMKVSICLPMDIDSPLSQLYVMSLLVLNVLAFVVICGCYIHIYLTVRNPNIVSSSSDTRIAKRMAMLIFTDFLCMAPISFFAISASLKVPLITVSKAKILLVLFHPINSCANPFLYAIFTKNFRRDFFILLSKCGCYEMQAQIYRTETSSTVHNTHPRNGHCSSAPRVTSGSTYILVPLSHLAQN
Description: HTRF assay for measuring cAMP in cells. The format is cell-based. The following applies: hFSHR clone 16 cells (CHO cells stably transfected with the human FSH receptor); in the presence of 1e-9 mol/l hFSH; 37° C. for 2 h; read-out: IC50 (FSH-antagonistic effect in the HTRF assay). The protocol: HTRF Assay for Measuring cAMP in Cells
The method is based on a competitive immunoassay between native cAMP, which has been produced by the cells, and cAMP which is labelled with XL665. The tracer binding was visualized by a monoclonal antibody, anti-cAMP labelled with cryptate [HTRF=homogeneous time-resolved fluorescence].
The specific signal is inversely proportional to the cAMP concentration of the samples employed.
The 665 nm/620 nm fluorescence ratio was evaluated.
The following material was used: 96-well plates for the tissue culture, 96-well plates with black edge and black base (e.g. Fluotrac 600 from Greiner), 96-well plates for the substance dilutions of polypropylene and cAMP Femtomolar (4000 wells Kit, CIS Bio International # 62AM1PEC).
The following reagents were used: BSA (bovine serum albumin) Fraction V protease-free, IBMX (3-isobutyl-1-methylxanthine), hFSH (human follicle stimulating hormone), Triton X-100 analytical grade, potassium fluoride analytical grade, G 418 (Geneticin) and Accutase.
Buffer 1 (washing and testing buffer) contained PBS, 1 mM CaCl2, 1 mM MgCl2, 0.2% glucose; 0.1% BSA, 1 mM IBMX. Buffer 2 (2× lysis buffer) contained 1% Triton X-100 in PBS (without CaCl2 and MgCl2). Buffer 3 (assay buffer) contained 50 mM potassium phosphate buffer (pH 7.0); 800 mM potassium fluoride; 0.2% BSA (always added fresh).
On day 1, the cells were seeded in 96-well plates (3×10^4 cells per well hFSHR clone 16 cells (CHO cells stably transfected with the human FSH receptor in 150 μl of medium). The next day, test substance dilutions were made up. For this purpose, all the substances were diluted in ice-cold buffer 1 (with or without hFSH), and the substance dilutions were placed on ice until applied to the cells.
The cell supernatant was then aspirated off, and the cells were washed 2× with 200 μl of buffer 1. The cells were treated with 60 μl of the appropriate substance concentrations at 37° C. for 2 h. The cells were then lysed with 60 μl of buffer 2 (put onto the supernatant) (on a plate shaker at RT for 30 min).
The test conjugates (XL-665 and anti-cAMP cryptate) were diluted in buffer 3 in accordance with the manufacturers' information. The actual mixture for measurement was pipetted into a black 96-well plate (in each case 15 μl of the cell lysate diluted with 35 μl of buffer 1; firstly 25 μl of XL-665 conjugate were pipetted and, after 10 min, 25 μl of the anti-cAMP cryptate were added). This is followed by incubation at RT for 90 minutes. The measurement was carried out in a PheraStar (BMG).
Tissue Culture Conditions
1) hFSHr clone 16 Ham's F12 • PSG • 10% FCS • 700 μg/ml G 418 (Geneticin) from PAA.
Dose-effect curve (hFSH) for the human receptor: 1e-8, 3e-9, 1e-9, 3e-10, 1e-10, 3e-11, 1e-11, 3e-12 mol/l.
The test substances were employed in suitable dilutions in the absence (test for agonism) and in the presence of 1e-9 mol/l hFSH.
The values of the well ratio were averaged and then entered directly in SigmaPlot versus the concentrations. The maximum and minimum values were determined for each plate, and half the difference is to be regarded as IC50.
A general note: TR-FRET usually uses a lanthanide donor and a delayed reading to cut background.
As to `CNC(=O)N(C)CC#Cc1ccc(OC(C)C)c(C(=O)N[C@@H](CO)Cc2c[nH]c3ccccc23)c1` [Example 10, 5-[3-(1,3-Dimethyl-ureido)-prop-1-ynyl]-N-[(R)-1-hydroxymethyl-2-(1H-indol-3-yl)-ethyl]-2-isopropoxy-benzamide], the IC50 – broadly, the concentration needed to halve the response being measured – stood at 6000 nM.
Consider `CC(C)Oc1ccc(C#CCCCO)cc1C(=O)N[C@@H](CO)Cc1c[nH]c2ccccc12` [Example 8, N-[(R)-1-Hydroxy-methyl-2-(1H-indol-3-yl)-ethyl]-5-(5-hydroxy-pent-1-ynyl)-2-iso-propoxy-benzamide], for which the IC50 came out at 500 nM.
With `CC(C)Oc1ccc(C#CCN2CCS(=O)(=O)CC2)cc1C(=O)N[C@@H](CO)Cc1c[nH]c2ccccc12` [Example 5, 5-[3-(1,1-Dioxo-1-lambda*6*-thiomorpho-lin-4-yl)-prop-1-ynyl]-N-[(R)-2-hydroxy-1-(1H-indol-3-ylmethyl)-ethyl]-2-isopropoxy-benzamide], the IC50 came out at 4500 nM.
For the molecule `Cc1ccc(NC(=O)NCC#Cc2ccc(OC(C)C)c(C(=O)N[C@@H](CO)Cc3c[nH]c4ccccc34)c2)cc1` [Example 7, N-[(R)-1-Hydroxy-methyl-2-(1H-indol-3-yl)-ethyl]-2-isopropoxy-5-[3-(3-p-tolyl-ureido)-prop-1-ynyl]-benzamide], the IC50 was 200 nM.
Consider `CC(C)Oc1ccc(C#CC(C)(C)C)cc1C(=O)N[C@@H](CO)Cc1c[nH]c2ccccc12` [Example 3, 5-(3,3-Dimethyl-but-1-ynyl)-N-[(R)-1-hydroxy-methyl-2-(1H-indol-3-yl)-ethyl]-2-isopropoxy-benzamide], for which the half-maximal inhibitory concentration (IC50) amounted to 600 nM.
